Measured values from US9072293B2, “Cyclopropenes and method for applying cyclopropenes to agricultural products or crops” (Erum Biotechnologies Inc., priority 2010, dated 2015).
Values joined by “and” are separate entries in the source; they are usually repeats but may differ in a detail not shown here. Equal entries are not always repeated.

Tests used:
[1] = 1,000 ppm (v/v) or less concentration, room temperature; cited from earlier work
tomato [2] = test: Experimental Example 2: Efficacy test on tomato using oil based formulation (reddening grade); format: in vivo; parameters: key: an area in which the surface of tomato was colored in pink was 10% or less; an area in which the surface of tomato was completely colored in red was 10 to 40%; 2: an area in which the surface of tomato was completely colored in red was 40 to 70%; 3: an area in which the surface of tomato was completely colored in red was 70% or more and the bottom area remained green; 4: an area in which the surface of tomato was most colored in red and only a part of (0 to 10%) the bottom area remained green; 5: the surface of tomato did not entirely color in green; details: 1.0 mM oil-based formulation, individual tomatoes n=4
Excerpt: (§1) At this time, the tops of tomatoes most early turned red, while the bottoms thereof most lately turned red. For this reason, in order to accurately evaluate the difference in reddening, the coloring evaluated was based on the area of red color, rather than the color of tomatoes. […] Accordingly, the grade level is proportional to the rate at which the tomatoes ripened.
As illustrated in Example 1, in situ, in accordance with the methods of Preparation Examples 15, 16, 17, 18 and 22, five agents (1.0 mmol) such as 1-(2-phenylethyl)cyclopropene, 1-(3-phenylpropyl)cyclopropene, 1-(4-phenylbutyl)cyclopropene, 1-(5-phenylpentyl)cyclopropene and 1-hexylcyclopropene were prepared, 5.0 ml of xylene and 5.0 ml of water were added to the reaction solution, vigorously stirred for 5 minutes and stood. When the mixture was separated into an organic layer (upper layer) and an aqueous layer (lower layer), only the organic layer was collected and the aqueous layer was discarded. […] of hexane was added to the organic layer and homogeneously mixed to prepare a 1.0 mM oil-based formulation.
The tomatoes were screened in the same manner as in Experimental Example 1 and divided into 7 groups (n=4) including a non-treated group, a control group (solvent-treated group) and 5 agent groups. Tomatoes were treated with the previously prepared agent using a household sprayer such that the surface thereof was saturated. The tomatoes were stood at room temperature (25-30° C.) for 3 days and a reddening level thereof was evaluated based on grades of 0 to 5.

[3] = Relative chemical stability of cyclopropenes measured by 1H-NMR; format: physicochemical; details: for Stability (relative chemical stability, based on cyclopropenes having a chain length of 1): 1H-NMR, CDCl3, stored at −20° C. or room temperature, relative to chain length 1
Method in brief: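 Compounds in CDCl3 NMR tubes stored at −20° C. or room temperature and followed by 1H-NMR. Integrals of characteristic 1-alkylcyclopropene peaks (4–6.5 ppm, 1H; 0.8–0.9 ppm, 2H) compared against 1,1,3,3-tetramethylurea internal standard (2.80 ppm); stability expressed relative to chain-length-1 analogue.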

tomato [4] = test: Experimental Example 1: Efficacy test on tomato using emulsion (reddening grade); format: in vivo; details: individual tomatoes n=4
Protocol: In situ, a 1.0 mM 1-octylcyclopropene formulation was prepared using (trans)-1-octyl-1-(methanesulfonyloxy)-2-(trimethylsilyl)cyclopropane of Preparation Example 10 in the same manner as in Example 7. This solution was diluted to 1 to 100 times prior to use, as necessary. Experimental Example 1: Efficacy test on tomato using emulsion 1.0 mM formulations of five agents such as 1-(2-phenylethyl)cyclopropene, 1-(3-phenylpropyl)cyclopropene, 1-(4-phenylbutyl)cyclopropene, 1-(5-phenylpentyl)cyclopropene and 1-hexylcyclopropene were prepared in the same manner as in Example 1, and 1.0 mM and 100 μM solutions were prepared therefrom. Then, the effects of the solutions were compared with non-treated groups and control groups in which a surfactant or a stabilizing agent (sodium dodecylbenzenesulfonate or tristyrenylphenykethoxy)12ethanol) is dissolved.
Tomatoes whose top end began to turn pink were screened, harvested and divided into 12 groups (n=4) in total, i.e., non-treated groups, control groups (surfactant) and agent groups with different concentrations such as 100 μM and 1.0 mM. Tomatoes were treated with the prepared agent formulation using a household sprayer such that the surface thereof was saturated. The tomatoes were stood at room temperature (25-30° C.) for 3 days and a reddening level thereof was evaluated based on grades of 0 to 5.
as §1

[5] = Day 0, room temperature (25-30° C.)
[6] = Day 1, room temperature (25-30° C.)
[7] = Day 2, room temperature (25-30° C.)
[8] = Day 3, room temperature (25-30° C.)
[9] = 100 μM, Day 0, room temperature (25-30° C.)
[10] = 100 μM, Day 1, room temperature (25-30° C.)
[11] = 100 μM, Day 2, room temperature (25-30° C.)
[12] = 100 μM, Day 3, room temperature (25-30° C.)
[13] = 1.0 mM, Day 0, room temperature (25-30° C.)
[14] = 1.0 mM, Day 1, room temperature (25-30° C.)
[15] = 1.0 mM, Day 2, room temperature (25-30° C.)
[16] = 1.0 mM, Day 3, room temperature (25-30° C.)

| Compound | half life [1] | Tomato results: reddening level (grade 0 to 5) (tomato [2]; [5]) | Tomato results: reddening level (grade 0 to 5) (tomato [2]; [6]) | Tomato results: reddening level (grade 0 to 5) (tomato [2]; [7]) | Tomato results: reddening level (grade 0 to 5) (tomato [2]; [8]) | chemical stability (in words) [3] | Stability (relative chemical stability, based on cyclopropenes having a chain length of 1) [3] | reddening level (grade 0 to 5) (tomato [4]; [9]) | reddening level (grade 0 to 5) (tomato [4]; [10]) | reddening level (grade 0 to 5) (tomato [4]; [11]) | reddening level (grade 0 to 5) (tomato [4]; [12]) | reddening level (grade 0 to 5) (tomato [4]; [13]) | reddening level (grade 0 to 5) (tomato [4]; [14]) | reddening level (grade 0 to 5) (tomato [4]; [15]) | reddening level (grade 0 to 5) (tomato [4]; [16]) |
| --- | --- | --- | --- | --- | --- | --- | --- | --- | --- | --- | --- | --- | --- | --- | --- |
| CC1=CC1 [1-methylcyclopropene] | ≥ 10 days |  |  |  |  |  |  |  |  |  |  |  |  |  |  |
| C1=C(CCCCc2ccccc2)C1 [(4-Phenylbutyl), 1-(4-phenylbutyl)cyclopropene] |  | 0 (an area in which the surface of tomato was colored in pink was 10% or less) (2×) and 1 (an area in which the surface of tomato was completely colored in red was 10 to 40%) and 2 (an area in which the surface of tomato was completely colored in red was 40 to 70%) | 0 (an area in which the surface of tomato was colored in pink was 10% or less) (2×) and 1 (an area in which the surface of tomato was completely colored in red was 10 to 40%) and 2 (an area in which the surface of tomato was completely colored in red was 40 to 70%) | 0 (an area in which the surface of tomato was colored in pink was 10% or less) (2×) and 1 (an area in which the surface of tomato was completely colored in red was 10 to 40%) and 3 (an area in which the surface of tomato was completely colored in red was 70% or more and the bottom area remained green) | 1 (an area in which the surface of tomato was completely colored in red was 10 to 40%) and 0 (an area in which the surface of tomato was colored in pink was 10% or less) and 2 (an area in which the surface of tomato was completely colored in red was 40 to 70%) and 4 | much more stable | >>10 | 0 (an area in which the surface of tomato was colored in pink was 10% or less) (2×) and 1 (an area in which the surface of tomato was completely colored in red was 10 to 40%) and 2 (an area in which the surface of tomato was completely colored in red was 40 to 70%) | 0 (an area in which the surface of tomato was colored in pink was 10% or less) (2×) and 1 (an area in which the surface of tomato was completely colored in red was 10 to 40%) and 2 (an area in which the surface of tomato was completely colored in red was 40 to 70%) | 1 (an area in which the surface of tomato was completely colored in red was 10 to 40%) (2×) and 2 (an area in which the surface of tomato was completely colored in red was 40 to 70%) and 3 (an area in which the surface of tomato was completely colored in red was 70% or more and the bottom area remained green) | 2 (an area in which the surface of tomato was completely colored in red was 40 to 70%) (2×) and 3 (an area in which the surface of tomato was completely colored in red was 70% or more and the bottom area remained green) and 4 | 0 (an area in which the surface of tomato was colored in pink was 10% or less) (2×) and 1 (an area in which the surface of tomato was completely colored in red was 10 to 40%) and 2 (an area in which the surface of tomato was completely colored in red was 40 to 70%) | 0 (an area in which the surface of tomato was colored in pink was 10% or less) (2×) and 1 (an area in which the surface of tomato was completely colored in red was 10 to 40%) and 2 (an area in which the surface of tomato was completely colored in red was 40 to 70%) | 0 (an area in which the surface of tomato was colored in pink was 10% or less) (2×) and 1 (an area in which the surface of tomato was completely colored in red was 10 to 40%) and 3 (an area in which the surface of tomato was completely colored in red was 70% or more and the bottom area remained green) | 1 (an area in which the surface of tomato was completely colored in red was 10 to 40%) (2×) and 2 (an area in which the surface of tomato was completely colored in red was 40 to 70%) and 3 (an area in which the surface of tomato was completely colored in red was 70% or more and the bottom area remained green) |
| C1=C(CCc2ccccc2)C1 [(2-Phenylethyl), 1-(2-phenylethyl)cyclopropene] |  | 0 (an area in which the surface of tomato was colored in pink was 10% or less) (2×) and 1 (an area in which the surface of tomato was completely colored in red was 10 to 40%) and 2 (an area in which the surface of tomato was completely colored in red was 40 to 70%) | 1 (an area in which the surface of tomato was completely colored in red was 10 to 40%) (2×) and 2 (an area in which the surface of tomato was completely colored in red was 40 to 70%) and 3 (an area in which the surface of tomato was completely colored in red was 70% or more and the bottom area remained green) | 2 (an area in which the surface of tomato was completely colored in red was 40 to 70%) (2×) and 4 (2×) | 4 (2×) and 5 (2×) | considerably stable | >10 | 0 (an area in which the surface of tomato was colored in pink was 10% or less) (2×) and 1 (an area in which the surface of tomato was completely colored in red was 10 to 40%) and 2 (an area in which the surface of tomato was completely colored in red was 40 to 70%) | 1 (an area in which the surface of tomato was completely colored in red was 10 to 40%) (2×) and 3 (an area in which the surface of tomato was completely colored in red was 70% or more and the bottom area remained green) (2×) | 2 (an area in which the surface of tomato was completely colored in red was 40 to 70%) and 3 (an area in which the surface of tomato was completely colored in red was 70% or more and the bottom area remained green) and 4 (2×) | 3 (an area in which the surface of tomato was completely colored in red was 70% or more and the bottom area remained green) and 4 and 5 (2×) | 0 (an area in which the surface of tomato was colored in pink was 10% or less) (2×) and 1 (an area in which the surface of tomato was completely colored in red was 10 to 40%) and 2 (an area in which the surface of tomato was completely colored in red was 40 to 70%) | 1 (an area in which the surface of tomato was completely colored in red was 10 to 40%) (2×) and 2 (an area in which the surface of tomato was completely colored in red was 40 to 70%) and 3 (an area in which the surface of tomato was completely colored in red was 70% or more and the bottom area remained green) | 2 (an area in which the surface of tomato was completely colored in red was 40 to 70%) (2×) and 3 (an area in which the surface of tomato was completely colored in red was 70% or more and the bottom area remained green) and 4 | 3 (an area in which the surface of tomato was completely colored in red was 70% or more and the bottom area remained green) (2×) and 4 and 5 |
